Assay results from US6355799B1, “Substituted benzene compounds, process for their preparation, and herbicidal and defoliant compositions containing them” (ISK Americas Incorporated, priority 1997, dated 2002).

Experiments:
Format in all cases: in vivo
[1] = tested on: redroot pigweed (Amaranthus retroflexus, AMARE); assay: Pre-emerge test, greenhouse herbicide activity screening; conditions: pre-emerge, 14 days after application
In short: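 Compounds in acetone were track-sprayed at 15-1000 g ai/ha (187 l/ha) on sandy loam pots: pre-emerge one day after seeding, post-emerge at 2-3 leaf stage with 0.25% v/v non-ionic surfactant. Phytotoxicity was rated 14 days later on a 0 (no damage) to 100 (complete death) scale.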

[2] = tested on: green foxtail (Setaria viridis, SETVI); assay: as above; conditions: pre-emerge, 14 days after application
Description: (§1) A standard greenhouse herbicide activity screening system was used to evaluate the herbicidal efficacy and crop safety of these test compounds. Seven broadleaf weed species including redroot pigweed (Amaranthus retroflexus, AMARE, velvetleaf (Abutilon theophrasti, ABUTH), sicklepod (Cassia obtusifolia, CASOB), ivyleaf morningglory (Ipomoea hederacea, IPOHE), lambsquarters (Chenopodium album, CHEAL), common ragweed (Ambrosia artemisizfolia L., AMBEL), and cocklebur (Xanthium strumarium, XANST) were used as test species. Four grass weed species including green foxtail (Setaria viridis, SETVI), barnyardgrass (Echinochloa crus-galli, ECHCG), johnsongrass (Sorghum halepense, SORHA), and large crabgrass (Digitaria sanguinalis, DIGSA) were also used. In addition, three crop species, field corn (Zea mays L., var. Dekalb 535, CORN), soybean (Glycine max L., var. Pella 86, SOY), and is upland rice (Oryza sp., var. Tebonnet, RICE) were included.
(§2) All plants were grown in 10 cm square plastic pots which were filled with a sandy loam soil mix. For pre-emerge tests, seeds were planted one day prior to application of the test compounds. For post-emerge tests, seeds were planted 8-21 days prior to the test to allow emergence and good foliage development prior to application of the test substances. At the time of the post-emerge application, plants of all species were usually at the 2-3 leaf stage of development.
(§3) All test compounds Were dissolved in acetone and applied to the test units in a volume of 187 l /ha. Test materials were applied at rates ranging from 15 g ai/ha to 1000 g ai/ha using a track sprayer equipped with a TJ8001E even flow flat fan spray nozzle. Plants were arranged on a shelf so that the top of the canopy (post-emerge) or top of the soil surface (pre-emerge) was 40-45 cm below the nozzle. Pressurized air was used to force the test solution through the nozzle as it was mechanically advanced (via electrically driven chain drive) over the top of all test plants/pots. This application simulates a typical commercial field herbicide application.
(§4) In the post-emerge test, a commercial non-ionic surfactant was also included (0.25% v/v) to enhance wetting of the leaf surfaces of target plants. Immediately after application, test units of the pre-emerge applications were watered at the soil surface to incorporate the test materials. Subsequently, these test units were bottom-watered. Post-emerge test units were always bottom-watered.
(§5) At 14 days after application of the test materials, phytotoxicity ratings were recorded. A rating scale of 0-100 was used as previously described in Research Methods in Weed Science, 2nd edition, B. Truelove, Ed., Southern Weed Science Society, Auburn University, Auburn, Ala. 1977. Briefly, “0” corresponds to no damage and “100” corresponds to complete death of all plants in the test unit. This scale was used both to determine efficacy against weed species and damage to crop species. Herbicide activity data for various compounds of this invention, which are shown by compound No. in Tables 1-8, are shown in Tables 11 and 12.

[3] = tested on: lambsquarters (Chenopodium album, CHEAL); assay: as above; conditions: pre-emerge, 14 days after application
Description: as §1, §2, §3, §4, §5

[4] = tested on: sicklepod (Cassia obtusifolia, CASOB); assay: as above; conditions: pre-emerge, 14 days after application
Description: as §1, §2, §3, §4, §5

[5] = tested on: large crabgrass (Digitaria sanguinalis, DIGSA); assay: as above; conditions: pre-emerge, 14 days after application
Description: as §1, §2, §3, §4, §5

[6] = tested on: velvetleaf (Abutilon theophrasti, ABUTH); assay: as above; conditions: pre-emerge, 14 days after application
Description: as §1, §2, §3, §4, §5

[7] = tested on: barnyardgrass (Echinochloa crus-galli, ECHCG); assay: as above; conditions: pre-emerge, 14 days after application
Description: as §1, §2, §3, §4, §5

[8] = tested on: ivyleaf morningglory (Ipomoea hederacea, IPOHE); assay: as above; conditions: pre-emerge, 14 days after application
Description: as §1, §2, §3, §4, §5

[9] = tested on: upland rice (Oryza sp., var. Tebonnet, RICE); assay: Post-emerge test, crop safety; conditions: post-emerge, 14 days after application, rating scale 0-100
In short: (§6)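 Rating: 0–100 visual injury, 14 DAA. Application: acetone, 187 l/ha, 15–1000 g ai/ha, flat-fan track sprayer with nozzle 40–45 cm above soil or canopy. Post-emerge runs used 0.25% v/v surfactant on 2–3 leaf plants.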

[10] = tested on: field corn (Zea mays L., var. Dekalb 535, CORN); assay: Post-emerge test, crop safety; conditions: post-emerge, 14 days after application, rating scale 0-100
In short: as §6

[11] = tested on: green foxtail (Setaria viridis, SETVI); assay: Post-emerge test, greenhouse herbicide activity screening; conditions: post-emerge, 14 days after application, rating scale 0-100
Description: as §1, §2, §3, §4, §5

[12] = tested on: lambsquarters (Chenopodium album, CHEAL); assay: as above; conditions: post-emerge, 14 days after application, rating scale 0-100
Description: as §1, §2, §3, §4, §5

[13] = tested on: redroot pigweed (Amaranthus retroflexus, AMARE); assay: as above; conditions: post-emerge, 14 days after application
Description: as §1, §2, §3, §4, §5

[14] = tested on: sicklepod (Cassia obtusifolia, CASOB); assay: as above; conditions: post-emerge, 14 days after application, rating scale 0-100
Description: as §1, §2, §3, §4, §5

[15] = tested on: large crabgrass (Digitaria sanguinalis, DIGSA); assay: as above; conditions: post-emerge, 14 days after application, rating scale 0-100
Description: as §1, §2, §3, §4, §5

[16] = tested on: velvetleaf (Abutilon theophrasti, ABUTH); assay: as above; conditions: post-emerge, 14 days after application, rating scale 0-100
Description: as §1, §2, §3, §4, §5

[17] = tested on: barnyardgrass (Echinochloa crus-galli, ECHCG); assay: as above; conditions: post-emerge, 14 days after application, rating scale 0-100
Description: as §1, §2, §3, §4, §5

[18] = tested on: ivyleaf morningglory (Ipomoea hederacea, IPOHE); assay: as above; conditions: post-emerge, 14 days after application, rating scale 0-100
Description: as §1, §2, §3, §4, §5

[19] = tested on: upland rice (Oryza sp., var. Tebonnet, RICE); assay: Pre-emerge test, crop safety; conditions: pre-emerge, 14 days after application; for phytotoxicity rating RICE (crop damage): scale 0-100; for phytotoxicity rating RICE: rating scale 0-100
In short: as §6

[20] = tested on: field corn (Zea mays L., var. Dekalb 535, CORN); assay: Pre-emerge test, crop safety; conditions: pre-emerge, 14 days after application; for phytotoxicity rating CORN (crop damage): scale 0-100; for phytotoxicity rating CORN: rating scale 0-100
In short: as §6

[21] = 250 g ai/ha, rating scale 0-100

Structure (SMILES): C=Cc1ccc(C(=O)N(C(=O)c2ccc(C=C)cc2)c2c(OC)c(Br)cc(F)c2-n2c(=O)cc(C(F)(F)F)n(C)c2=O)cc1 [2-183]
- phytotoxicity rating AMARE ([1]; 63 g ai/ha, scale 0-100): 0
- phytotoxicity rating AMARE ([1]; 250 g ai/ha, scale 0-100): 30
- phytotoxicity rating SETVI ([2]; 63 g ai/ha, scale 0-100): 0
- phytotoxicity rating SETVI ([2]; 250 g ai/ha, scale 0-100): 0
- phytotoxicity rating CHEAL ([3]; 63 g ai/ha, scale 0-100): 0
- phytotoxicity rating CHEAL ([3]; 250 g ai/ha, scale 0-100): 40
- phytotoxicity rating CASOB ([4]; 63 g ai/ha, scale 0-100): 0
- phytotoxicity rating CASOB ([4]; 250 g ai/ha, scale 0-100): 0
- phytotoxicity rating DIGSA ([5]; 63 g ai/ha, scale 0-100): 0
- phytotoxicity rating DIGSA ([5]; 250 g ai/ha, scale 0-100): 0
- phytotoxicity rating ABUTH ([6]; 63 g ai/ha, scale 0-100): 0
- phytotoxicity rating ABUTH ([6]; 250 g ai/ha, scale 0-100): 10
- phytotoxicity rating ECHCG ([7]; 63 g ai/ha, scale 0-100): 0
- phytotoxicity rating ECHCG ([7]; 250 g ai/ha, scale 0-100): 0
- phytotoxicity rating IPOHE ([8]; 63 g ai/ha, scale 0-100): 0
- phytotoxicity rating IPOHE ([8]; 250 g ai/ha, scale 0-100): 0
- RICE phytotoxicity rating (crop damage) ([9]; 63 g ai/ha): 0
- RICE phytotoxicity rating (crop damage) ([9]; 250 g ai/ha): 0
- CORN phytotoxicity rating (crop damage) ([10]; 63 g ai/ha): 0
- CORN phytotoxicity rating (crop damage) ([10]; 250 g ai/ha): 0
- SETVI phytotoxicity rating ([11]; 63 g ai/ha): 0
- SETVI phytotoxicity rating ([11]; 250 g ai/ha): 0
- CHEAL phytotoxicity rating ([12]; 63 g ai/ha): 0
- CHEAL phytotoxicity rating ([12]; 250 g ai/ha): 80
- AMARE phytotoxicity rating ([13]; 63 g ai/ha, rating scale 0-100): 0
- AMARE phytotoxicity rating [13, 21]: 10
- CASOB phytotoxicity rating ([14]; 63 g ai/ha): 0
- CASOB phytotoxicity rating ([14]; 250 g ai/ha): 0
- DIGSA phytotoxicity rating ([15]; 63 g ai/ha): 0
- DIGSA phytotoxicity rating ([15]; 250 g ai/ha): 0
- ABUTH phytotoxicity rating ([16]; 63 g ai/ha): 0
- ABUTH phytotoxicity rating ([16]; 250 g ai/ha): 50
- ECHCG phytotoxicity rating ([17]; 63 g ai/ha): 0
- ECHCG phytotoxicity rating ([17]; 250 g ai/ha): 0
- IPOHE phytotoxicity rating ([18]; 63 g ai/ha): 0
- IPOHE phytotoxicity rating ([18]; 250 g ai/ha): 40
- phytotoxicity rating RICE (crop damage) ([19]; 63 g ai/ha): 0
- phytotoxicity rating RICE (crop damage) ([19]; 250 g ai/ha): 0
- phytotoxicity rating CORN (crop damage) ([20]; 63 g ai/ha): 0
- phytotoxicity rating CORN (crop damage) ([20]; 250 g ai/ha): 0

Structure (SMILES): COc1c(Cl)cc(F)c(-n2c(=O)cc(C(F)(F)F)n(C)c2=O)c1NNC(=O)c1ccc(F)cc1F [15-4]
- phytotoxicity rating AMARE ([1]; 63 g ai/ha, rating scale 0-100): 100
- phytotoxicity rating AMARE [1, 21]: 100
- phytotoxicity rating SETVI ([2]; 63 g ai/ha, rating scale 0-100): 100
- phytotoxicity rating SETVI [2, 21]: 100
- phytotoxicity rating CHEAL ([3]; 63 g ai/ha, rating scale 0-100): 100
- phytotoxicity rating CHEAL [3, 21]: 100
- phytotoxicity rating CASOB ([4]; 63 g ai/ha, rating scale 0-100): 100
- phytotoxicity rating CASOB [4, 21]: 100
- phytotoxicity rating DIGSA ([5]; 63 g ai/ha, rating scale 0-100): 100
- phytotoxicity rating DIGSA [5, 21]: 100
- phytotoxicity rating ABUTH ([6]; 63 g ai/ha, rating scale 0-100): 100
- phytotoxicity rating ABUTH [6, 21]: 100
- phytotoxicity rating ECHCG ([7]; 63 g ai/ha, rating scale 0-100): 80
- phytotoxicity rating ECHCG [7, 21]: 100
- phytotoxicity rating IPOHE ([8]; 63 g ai/ha, rating scale 0-100): 100
- phytotoxicity rating IPOHE [8, 21]: 100
- Post-emerge Herbicidal Activity RICE (crop damage rating) ([9]; 63 g ai/ha): 70
- Post-emerge Herbicidal Activity RICE (crop damage rating) ([9]; 250 g ai/ha): 95
- Post-emerge Herbicidal Activity CORN (crop damage rating) ([10]; 63 g ai/ha): 50
- Post-emerge Herbicidal Activity CORN (crop damage rating) ([10]; 250 g ai/ha): 90
- Post-emerge Herbicidal Activity SETVI (phytotoxicity rating) ([11]; 63 g ai/ha): 50
- Post-emerge Herbicidal Activity SETVI (phytotoxicity rating) ([11]; 250 g ai/ha): 80
- Post-emerge Herbicidal Activity CHEAL (phytotoxicity rating) ([12]; 63 g ai/ha): 100
- Post-emerge Herbicidal Activity CHEAL (phytotoxicity rating) ([12]; 250 g ai/ha): 100
- Post-emerge Herbicidal Activity AMARE (phytotoxicity rating) ([13]; 63 g ai/ha, rating scale 0-100 (0 no damage, 100 complete death)): 70
- Post-emerge Herbicidal Activity AMARE (phytotoxicity rating) [13, 21]: 100
- Post-emerge Herbicidal Activity CASOB (phytotoxicity rating) ([14]; 63 g ai/ha): 50
- Post-emerge Herbicidal Activity CASOB (phytotoxicity rating) ([14]; 250 g ai/ha): 80
- Post-emerge Herbicidal Activity DIGSA (phytotoxicity rating) ([15]; 63 g ai/ha): 30
- Post-emerge Herbicidal Activity DIGSA (phytotoxicity rating) ([15]; 250 g ai/ha): 70
- Post-emerge Herbicidal Activity ABUTH (phytotoxicity rating) ([16]; 63 g ai/ha): 100
- Post-emerge Herbicidal Activity ABUTH (phytotoxicity rating) ([16]; 250 g ai/ha): 100
- Post-emerge Herbicidal Activity ECHCG (phytotoxicity rating) ([17]; 63 g ai/ha): 40
- Post-emerge Herbicidal Activity ECHCG (phytotoxicity rating) ([17]; 250 g ai/ha): 90
- Post-emerge Herbicidal Activity IPOHE (phytotoxicity rating) ([18]; 63 g ai/ha): 100
- Post-emerge Herbicidal Activity IPOHE (phytotoxicity rating) ([18]; 250 g ai/ha): 100
- phytotoxicity rating RICE ([19]; 63 g ai/ha): 80
- phytotoxicity rating RICE ([19]; 250 g ai/ha): 100
- phytotoxicity rating CORN ([20]; 63 g ai/ha): 90
- phytotoxicity rating CORN ([20]; 250 g ai/ha): 100
